The target of assay [1] is T1, Recombinant human liver GK1 (GST-GK) (Homo sapiens, UniProt P35557).
T1 construct: made in house; host or cells: E. coli
T1 sequence (P35557 1-466 isoform P35557-2): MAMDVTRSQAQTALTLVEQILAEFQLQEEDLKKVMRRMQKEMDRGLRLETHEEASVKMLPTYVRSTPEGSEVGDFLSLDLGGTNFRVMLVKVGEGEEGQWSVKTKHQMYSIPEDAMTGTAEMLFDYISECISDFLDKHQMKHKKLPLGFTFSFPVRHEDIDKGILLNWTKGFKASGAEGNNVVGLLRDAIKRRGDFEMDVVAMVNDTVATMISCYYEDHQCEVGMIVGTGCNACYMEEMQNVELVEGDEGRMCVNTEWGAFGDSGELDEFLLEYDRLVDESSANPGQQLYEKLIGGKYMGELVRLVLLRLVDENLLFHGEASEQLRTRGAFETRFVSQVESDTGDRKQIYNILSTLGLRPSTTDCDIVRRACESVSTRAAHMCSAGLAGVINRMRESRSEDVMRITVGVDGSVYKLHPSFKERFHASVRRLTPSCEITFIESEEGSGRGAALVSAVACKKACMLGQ
Description: Glucokinase in vitro assay (G6PDH-coupled, NADH generation, OD340). The format is biochemical. The conditions noted are these: 30° C., 5 mM D-glucose, 10% dimethylsulfoxide. The method, then: Glucokinase In Vitro Assay Protocol:
Glucokinase (GK) was assayed by coupling the production of glucose-6-phosphate to the generation of NADH with glucose-6-phosphate dehydrogenase (G6PDH, 0.75-1 kunits/mg; Boehringer Mannheim, Indianapolis, Ind.) from Leuconostoc mesenteroides as the coupling enzyme (Scheme 2).
Recombinant human liver GK1 was expressed in E. coli as a glutathione S-transferase fusion protein (GST-GK) and was purified by chromatography over a glutathione-Sepharose 4B affinity column using the procedure provided by the manufacturer (Amersham Pharmacia Biotech, Piscataway, N.J.).
The assay was conducted at 30° C. in a flat bottom 96-well tissue culture plate from Costar (Cambridge, Mass.) with a final incubation volume of 120 μL. The incubation reaction contained the following: 25 mM Hepes buffer (pH 7.1), 25 mM KCl, 5 mM D-glucose, 1 mM ATP, 1.8 mM NAD, 2 mM MgCl2, 1 μM sorbitol-6-phosphate, 1 mM dithiothreitol, test drug or 10% dimethylsulfoxide, ˜7 units/ml G6PDH, and GK (see below). All organic reagents were >98% pure and were from Boehringer Mannheim with the exceptions of D-glucose and Hepes which were from Sigma Chemical Co, St Louis, Mo. Test compounds were dissolved in dimethylsulfoxide and were added to the incubation reaction minus GST-GK in a volume of 12 μL to yield a final dimethylsulfoxide concentration of 10%. This mix was pre-incubated in the temperature controlled chamber of a SPECTRAmax 250 microplate spectrophotometer (Molecular Devices Corporation, Sunnyvale, Calif.) for 10 minutes to allow temperature equilibrium and then the reaction was started by the addition of 20 μL GST-GK.
After addition of enzyme, the increase in optical density (OD) at 340 nm was monitored spectrophotometrically to determine the rate of change (OD340 per min). The GK activity (OD340/min) in control wells (10% dimethylsulfoxide minus GK activators) was compared with the activity in wells containing test GK activators, and the concentration of activator that produced a 50% increase in the activity of GK, i.e., the SC1.5, was calculated.

Assay [2] relates to C57BL/6J mice. Description: Glucokinase activator in vivo screen: blood glucose lowering after oral gavage in mice. The conditions noted are these: Mus musculus, C57B6 mice, read-out: % gluc lowering @ 2 H; for change in vivo at 25 mg/kg: vs. control at 2 hours post 25 mg/kg oral dose. The procedure:
Glucokinase Activator In Vivo Screen Protocol in Lean Mice:
Lean C57BL/6J mice were orally dosed via gavage with Glucokinase (GK) activator following a two hour fasting period. Blood glucose determinations were made at various (e.g. 0, 1, 2, 4 and 8 hours post-oral gavage) times during the study.
C57Bl/6J mice were obtained from Jackson Laboratory (Bar Harbor, Me.) and were maintained in a light-dark cycle with lights on from 0600-1800 hr. For studies in lean mice, the mice were received at age ten weeks and given ad libitum access to control diet (LabDiet 5001 chow, PMI Nutrition, Brentwood, Mo.), and were at least age 11 weeks at the time of study. For studies in the DIO model, the mice were received at age five weeks and given ad libitum access to Bio-Sery F3282 High Fat Diet (Frenchtown, N.J.), and were at least age 16 weeks at the time of study. The experiments were conducted during the light phase of the light-dark cycle. Mice (n=6) are weighed and fasted for a two hour period prior to oral treatment. GK activators are formulated in Gelucire vehicle (Ethanol:Gelucire44/14:PEG400q.s. 4:66:30 v/w/v). For studies in lean mice, the mice were dosed orally with 5.0 μL per gram of body weight (i.e. 5 ml/kg×10.0 mg/ml formulation to equal a 50 mg/kg dose). For studies in DIO mice, the mice were dosed orally with 5.0 μL per gram of body weight (i.e. 5.0 ml/kg×5 mg/ml formulation to equal a 25 mg/kg dose). Immediately prior to dosing, a pre-dose (time zero) blood glucose reading was acquired by snipping off a small portion of the animal's tail and collecting 15 μL blood into a heparinized capillary tube for analysis. Following GK activator administration, additional blood glucose readings were taken at various time points post dose from the same tail wound. Results were interpreted by comparing the mean blood glucose values of vehicle treated mice with GK activator treated mice over the study period.
Table 2 below provides data for % glucose lowering of a representative number of compounds of the present invention vs. control at 2 hours post 25 or 50 mg/kg dose in C57B6 mice: […]

`CC(C)OCCn1ccc(NC(=O)[C@H](CC2CCCC2)N2Cc3c(cccc3C(F)(F)F)C2=O)n1` [Example 17, (S)-3-Cyclopentyl-N-[1-(2-isopropoy-ethyl)-1H-pyrazol-3-yl]-2-(1-oxo-4-trifluoromethyl-1,3-dihydro-isoindol-2-yl)-propionamide]: in assay [1], the “SC1.5 (concentration of activator that produced a 50% increase in the activity of GK)” value amounted to 0.179 µM. In addition, in assay [2], the change in vivo at 25 mg/kg is -40.2%.
As to `O=C(Nc1cnccn1)[C@H](CC1CCCC1)N1Cc2c(cccc2C(F)(F)F)C1=O` [Example 15, (S)-3-Cyclopentyl-2-(1-oxo-4-trifluoromethyl-1,3-dihydro-isoindol-2-yl)-N-pyrazin-2-yl-propionamide], the “SC1.5 (concentration of activator that produced a 50% increase in the activity of GK)” value in assay [1] was found to be 0.176 µM. Further, the change in vivo at 25 mg/kg in assay [2] is -22.5%.
For `Cn1ccc(NC(=O)[C@H](CC2CCCC2)N2Cc3c(cccc3C(F)(F)F)C2=O)n1` [Example 1, (S)-3-Cyclopentyl-N-(1-methyl-1H-pyrazol-3-yl)-2-(1-oxo-4-trifluoromethyl-1,3-dihydro-isoindol-2-yl)-propionamide] the same measures were 0.187 µM and -39.8%.
For `O=C(Nc1ccn(C[C@@H](O)CO)n1)[C@H](CC1CCCC1)N1Cc2c(cccc2C(F)(F)F)C1=O` [Example 5, (S)-3-Cyclopentyl-N-[1-((R)-2,3-dihydroxy-propyl)-1H-pyrazol-3-yl]-2-(1-oxo-4-trifluoromethyl-1,3-dihydro-isoindol-2-yl)-propionamide] the same measures were 0.074 µM and -50.1%.
Consider `O=C(Nc1cnc([C@H](O)CO)cn1)[C@H](CC1CCCC1)N1Cc2c(cccc2C(F)(F)F)C1=O` [Example 21, (S)-3-Cyclopentyl-N-[5-((S)-1,2-dihydroxy-ethyl)-pyrazin-2-yl]-2-(1-oxo-4-trifluoromethyl-1,3-dihydro-isoindol-2-yl)-propionamide], for which the “SC1.5 (concentration of activator that produced a 50% increase in the activity of GK)” value in assay [1] is 0.255 µM. Also, the change in vivo at 25 mg/kg in assay [2] is -36.6%.
For `COC(C)(C)Cn1ccc(NC(=O)[C@H](CC2CCCC2)N2Cc3c(cccc3C(F)(F)F)C2=O)n1` [Example 7, (S)-3-Cyclopentyl-N-[1-(2-methoxy-2-methyl-propyl)-1H-pyrazol-3-yl]-2-(1-oxo-4-trifluoromethyl-1,3-dihydro-isoindol-2-yl)-propionamide] the same measures were 0.032 µM and -48.2%.
Turning to `COCCn1ccc(NC(=O)[C@H](CC2CCCC2)N2Cc3c(cccc3C(F)(F)F)C2=O)n1` [Example 13, (S)-3-Cyclopentyl-N-[1-(2-methoxy-ethyl)-1H-pyrazol-3-yl]-2-(1-oxo-4-trifluoromethyl-1,3-dihydro-isoindol-2-yl)-propionamide], the “SC1.5 (concentration of activator that produced a 50% increase in the activity of GK)” value in assay [1] worked out at 0.328 µM. The change in vivo at 50 mg/kg in assay [2] (vs. control at 2 hours post 50 mg/kg oral dose) was -45.2%.

These data come from patent US8697705B2, “Isoindolinone derivatives” (Hoffmann-La Roche Inc., priority 2011, dated 2014).
